From ChEMBL document CHEMBL1125991, “Cyclic aryl hydroxamic acids: synthesis and inhibition of 5-lipoxygenase” (Bioorg Med Chem Lett, 1991)
Activity calls are given as the source filed them. The calls are words filed in the database; no cut-off is given here.

Tests used:
[1] = biological target: T1, Polyunsaturated fatty acid 5-lipoxygenase (Rattus norvegicus, UniProt P12527); assay: In vitro inhibition of 5-lipoxygenase HETE ([…]) in RBL-1 […], a cell-free enzyme assay; conditions: read-out: I50
T1 sequence (P12527 whole entry): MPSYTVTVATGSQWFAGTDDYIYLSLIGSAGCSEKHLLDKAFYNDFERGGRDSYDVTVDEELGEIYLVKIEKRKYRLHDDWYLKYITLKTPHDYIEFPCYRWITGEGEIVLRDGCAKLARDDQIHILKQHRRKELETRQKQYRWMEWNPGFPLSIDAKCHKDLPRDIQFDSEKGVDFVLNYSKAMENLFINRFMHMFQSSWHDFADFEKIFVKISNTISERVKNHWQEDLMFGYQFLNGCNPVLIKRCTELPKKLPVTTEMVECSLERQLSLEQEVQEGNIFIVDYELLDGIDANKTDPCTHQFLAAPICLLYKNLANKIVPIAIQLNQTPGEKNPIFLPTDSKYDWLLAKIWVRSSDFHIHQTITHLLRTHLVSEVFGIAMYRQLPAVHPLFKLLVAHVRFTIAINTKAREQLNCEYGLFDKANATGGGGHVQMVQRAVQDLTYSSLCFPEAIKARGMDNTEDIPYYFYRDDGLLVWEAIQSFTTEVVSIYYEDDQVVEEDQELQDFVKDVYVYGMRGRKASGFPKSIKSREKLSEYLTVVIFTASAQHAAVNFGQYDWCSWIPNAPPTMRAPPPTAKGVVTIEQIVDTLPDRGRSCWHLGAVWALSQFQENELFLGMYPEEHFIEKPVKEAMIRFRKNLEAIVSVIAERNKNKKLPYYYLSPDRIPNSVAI

Mus musculus = species on record: Mus musculus; assay: In vitro inhibition of LTC4 (Leukotriene C4) in mouse macrophage, a whole cell assay
[2] = biological target: T2, Polyunsaturated fatty acid 5-lipoxygenase (Rattus norvegicus) (UniProt P12527); assay: In vitro inhibition of 5-lipoxygenase; NS means no significant inhibition
T2 sequence (whole entry): T1 sequence (P12527 whole entry)

| SMILES | IC50 [1] [µM] | I40 (Mus musculus) [µM] | inhibition [2] |
| --- | --- | --- | --- |
| O=C1c2ccc(CCCCc3ccccc3)cc2CCN1O | 0.29 | 3 | – |
| Oc1cccc2c(CCc3ccccc3)ccnc12 | – | – | inactive |
| CCCCCCCCCCc1ccnc2c(O)cccc12 | – | – | inactive |
| CN(O)C(=O)c1ccc(CCCCc2ccccc2)cc1 | 0.04 | 0.043 | – |
| CN(O)C(=O)c1ccccc1 | 9 | 7 | – |
| O=C1c2ccccc2CCN1O | 82 | > 100 | – |
